# Experimental data taken from ChEMBL document CHEMBL1158744, “Leptolide, a new furanocembranolide diterpene from Leptogorgia alba” (J Nat Prod, 2005).
# Tested on: Plasmodium falciparum
# Assay: Antiplasmodial activity against Plasmodium falciparum W2 after 48 hrs in PicoGreen microfluorimetry
# Assay type: functional, organism-based
# Conditions: W2, 48 h
row,SMILES,IC50 [µM]
1,C=C(C)[C@@H]1CC2=C(C=O)C=C(O2)[C@@H]2O[C@@]2(C)C[C@H]2OC(=O)[C@@]3(O[C@H]23)[C@@H](OC(C)=O)C1 [LOPHOTOXIN],74
2,C=C(C)[C@H]1CCC2=C[C@@H](C[C@]3(C)O[C@H]3C3=CC(C=O)=C(C1)O3)OC2=O [PUKALIDE ALDEHYDE],134

# Second part, the compound after the results:
row,IC50 [µM],SMILES
1,109,C=C(C)[C@H]1CC2=C(C(=O)OC)C=C(O2)[C@H]2O[C@]2(C)C[C@H]2C=C(C(=O)O2)[C@H](OC(C)=O)C1
2,50,C=C(C)[C@@H]1CCC2=C[C@@H](OC2=O)[C@@H](C(=C)C)C2=CC(C(=O)OC)=C(C1)O2 [DEOXYPSEUDOPTEROLIDE]
3,105,C=C(C)[C@H]1CC2=C(C(=O)OC)C=C(O2)[C@H]2O[C@]2(C)C[C@@H]2OC(=O)[C@]3(O[C@@H]23)[C@H](OC(C)=O)C1 [LOPHOLIDE]
